The source of these data is paper PMC12675575, “A BRET biosensor for measuring uncompetitive engagement of PRMT5 complexes in cells” (Nature Communications, 2025).

This test addresses NanoLuc-PRMT5 co-expressed with WDR77 (Homo sapiens, UniProt O14744). Put plainly: Live-cell NanoBRET target engagement with BRET probe CBH-002 in HEK293 cells expressing NanoLuc-PRMT5 and unlabeled WDR77. In kind it is cell-based. Set-up: host or cells: HEK293. The settings on record: HEK293, Figure S2H, log([compound]), read-out: normalised BRET, Bio rep 1-3; for remaining activity at 0.3715 µM: uM -0.43; for remaining activity at 0.04074 µM: uM -1.39; for remaining activity at 0.0138 µM: uM -1.86; for remaining activity at 0.004571 µM: uM -2.34; for remaining activity at 0.001514 µM: uM -2.82; for remaining activity at 0.0005129 µM: uM -3.29; for remaining activity at 0.0001698 µM: uM -3.77. The procedure:
HEK293 cells (ATCC) were cultured in DMEM (Thermo Fisher) + 10% (v/v) FBS (Seredigm), and HCT116 cells (Horizon Discovery, #PAR-034 and #R02-033) were cultured in McCoy’s 5A (Thermo Fisher) + 10% FBS, with incubation in a humidified, 37 °C/5% CO2 incubator. Cells were split 1–3 days prior to performing experiments and used at roughly 80% confluency. […] Cells were transfected according to the manufacturer’s protocol using FuGENE HD (Promega). NanoLuc fusion DNA was diluted into Transfection Carrier DNA (Promega) in Opti-MEM at a ratio of 1:9 (mass/mass), and FuGENE HD was added at a ratio of 1:3 (μg DNA:μL lipid). […] Formed complexes were combined with cells resuspended to a density of 2 × 10^5 cells/mL in Opti-MEM + 1% FBS at a ratio of 1:20 (vol:vol). […] Cells were seeded at a density of 2 × 10^5 cells/mL in Opti-MEM + 1% FBS in 100 μL (96-well). The BRET probe CBH-002 was prepared first as a 100× stock in 100% DMSO (Sigma) and then diluted to a 20× stock in NanoBRET Tracer Dilution buffer (Promega). Test compounds were prepared as 1000× stocks in 100% DMSO and diluted to 10× stocks in Opti-MEM to prepare working stocks. […] NanoBRET Complete 3x Substrate was prepared by combining Nano-Glo Substrate and Extracellular NanoLuc Inhibitor in Opti-MEM, according to the manufacturer’s protocol (Promega).
BRET ratio values were calculated by dividing the acceptor by the donor signal, and raw BRET was converted to milli-BRET (mBRET) units (mBu) by multiplying by 1000.
EC50 values were obtained by fitting the BRET probe and compound affinity curves to a sigmoidal four-parameter fit model in Graphpad Prism:1 Y=Ymin+Ymax−Ymin/1+10^LogEC50−Xh where h is the Hill Slope.
When normalized BRET was used, mBRET values were normalized using2 NormalizedBRET%=(Y−BRETmin)/BRETmax−BRETmin where y = mBRET in the presence of test compound and BRET probe, BRETmin = mBRET at the highest concentration (saturating) of test compound and BRET probe, and BRETmax = mBRET in the presence of vehicle (DMSO) and BRET probe.
Normalized concentration-response curves showing full competition were fit using a 2-parameter model:3 Y=100/1+10^LogEC50−Xh
In situations where only partial competition was observed, the normalized concentration-response curves were fit using Eq. 1 and where Ymin was constrained to >0.
A general note: Bioluminescence resonance energy transfer reports proximity on the nanometre scale.

Where two headings read alike, the source gives them in different places.

Chain of NanoLuc-PRMT5 co-expressed with WDR77 (O14744 whole entry): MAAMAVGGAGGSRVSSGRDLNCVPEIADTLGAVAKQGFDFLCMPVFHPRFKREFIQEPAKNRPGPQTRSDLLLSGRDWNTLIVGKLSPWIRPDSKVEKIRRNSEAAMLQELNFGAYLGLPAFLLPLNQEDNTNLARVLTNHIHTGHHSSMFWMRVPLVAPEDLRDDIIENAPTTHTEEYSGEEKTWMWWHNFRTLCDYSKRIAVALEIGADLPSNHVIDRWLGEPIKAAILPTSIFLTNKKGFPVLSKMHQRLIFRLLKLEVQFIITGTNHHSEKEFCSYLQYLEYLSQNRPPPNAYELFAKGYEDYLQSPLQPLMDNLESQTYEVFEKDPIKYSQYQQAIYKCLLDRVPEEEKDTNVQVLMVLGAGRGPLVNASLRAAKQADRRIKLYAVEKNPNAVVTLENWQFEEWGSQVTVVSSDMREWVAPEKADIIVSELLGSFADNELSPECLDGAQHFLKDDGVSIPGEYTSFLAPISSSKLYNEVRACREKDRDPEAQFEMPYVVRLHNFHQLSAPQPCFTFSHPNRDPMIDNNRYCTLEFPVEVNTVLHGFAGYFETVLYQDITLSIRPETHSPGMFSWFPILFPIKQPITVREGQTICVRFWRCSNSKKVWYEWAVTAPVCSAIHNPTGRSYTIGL
Chain of NanoLuc-PRMT5 co-expressed with WDR77 (Q9BQA1 whole entry partner): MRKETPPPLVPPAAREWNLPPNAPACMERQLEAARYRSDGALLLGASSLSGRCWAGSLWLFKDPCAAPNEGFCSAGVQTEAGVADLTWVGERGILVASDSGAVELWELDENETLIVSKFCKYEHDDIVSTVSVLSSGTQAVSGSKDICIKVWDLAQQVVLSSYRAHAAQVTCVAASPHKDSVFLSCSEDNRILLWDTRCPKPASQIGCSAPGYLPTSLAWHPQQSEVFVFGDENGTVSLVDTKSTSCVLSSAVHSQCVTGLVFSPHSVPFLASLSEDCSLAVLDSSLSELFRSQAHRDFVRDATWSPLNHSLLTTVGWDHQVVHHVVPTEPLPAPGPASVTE

Consider `CC(C)Oc1ccc(-c2c[nH]cc2CN(C)CCN)cc1` [MS023, reference compound], for which the remaining activity at 0.3715 µM is 102%, the remaining activity at 0.04074 µM was 103%, the remaining activity at 0.0138 µM is 104% and the remaining activity at 0.004571 µM amounted to 101%. Moreover, the remaining activity at 0.001514 µM worked out at 102%, the remaining activity at 0.0005129 µM came to 103% and the remaining activity at 0.0001698 µM was 98%. In addition, under “uM 0.0458”, the remaining activity at […] turned out to be 103%. Further, the remaining activity at […] (uM 0.52) was 102%. Also, the remaining activity at […] (uM -0.91) was determined as 103%.

For `CNCCN1CCC(c2cc(CN(C)C(=O)c3cccc(Oc4ccccc4)c3)ccn2)CC1` [TP064, reference compound], the remaining activity at 0.3715 µM amounted to 102%, the remaining activity at 0.04074 µM is 101%, the remaining activity at 0.0138 µM came out at 101% and the remaining activity at 0.004571 µM amounted to 99.8%. Moreover, the remaining activity at 0.001514 µM turned out to be 97.9%, the remaining activity at 0.0005129 µM amounted to 97.6% and the remaining activity at 0.0001698 µM was determined as 97.4%. Also, the remaining activity at […] (uM 0.0458) was 100%. For the same compound, under “uM 0.52”, the remaining activity at […] turned out to be 99%. The remaining activity at […] (uM -0.91) was 102%.
